In patent US10539578B2, “Method for diagnosing, treating, or preventing mood disorders” (JAPAN TOBACCO INC., priority 2015, dated 2020):

Experiments:
HHV-6 HST strain = experiment: Suppression of SITH-1 expression by heparin and anti-heparan sulfate peptide in HHV-6-infected U373 cells; type: cell-based; details: 10 unit/mL reacted with U373 cells at 4° C. for 1 hour before infection; MOI 3; 48 hours
Protocol: U373 astrocytoma cells were removed with use of trypsin-EDTA, and then a medium (10% FBS-containing DMEM) was added, so that the resultant cells were at 1×10^5 cell/mL. Then, the U373 cells were reacted with 10 unit/mL of Novo-Heparin (Mochida Pharmaceutical Co., Ltd.) or 0.1 mM of anti-3-OS Heparan sulfate (HS) peptide trifluoroacetate salt (Sigma-Aldrich) at 4° C. for 1 hour. The U373 cells were also reacted only with a medium as a control at 4° C. for 1 hour. The resultant cells were washed 3 times with a medium. Then, the U373 cells thus washed were infected with a HHV-6 HST strain virus fluid (2.9×10^6 ffu/ml) at a MOI of 3 by centrifugation. Then, the infected cells were cultured at 37° C. for 48 hours in a CO2 incubator.
From the resultant infected cells, RNA was purified by use of an RNeasy Mini Kit (Qiagen) in accordance with the standard protocol. Then, cDNA was synthesized by use of a PrimeScript RT Reagent Kit (Takara Bio). Finally, expression levels of SITH-1 and GAPDH mRNA were measured by a method similar to that used in the above (3.1).

[1] = test system: HHV-6 variant B HST strain; experiment: SITH-1 expression in HHV-6-infected U373 cells in the presence of ganciclovir (Real-time PCR); type: cell-based; details: U373 cultured overnight with drug, one day after infection, relative to ganciclovir(−)
Protocol: In the presence of ganciclovir, human glial cell lines (U373) were infected with HHV-6, and SITH-1 expression levels in the infected cells was detected by use of Real-time PCR.
The U373 cells were cultured overnight in the presence of ganciclovir at concentrations indicated in the graph. Thereafter, the U373 cells were infected with HHV-6 variant B HST strain, and after one day had passed after this infection, the SITH-1 expression levels in the cells were detected by use of Real-time PCR.
With regards to an effective concentration of ganciclovir against HHV-6 variant B, IC50 was presumed to be approximately 10 μM. As such, three concentration levels obtained by 3-fold dilution were used, with 10 μM being a median amount.
FIG. 25 illustrates suppression of SITH-1 expression by ganciclovir. The vertical axis of FIG. 25 represents SITH-1 mRNA expression level as a ratio, where 1 is the ratio for ganciclovir(−). […] When ganciclovir was used in an amount of 3 μM, 10 μM, and 30 μM, SITH-1 mRNA expression levels were reduced by approximately 20%, 40%, and 80% or more, respectively.

HHV-6 variant B = details: presumed value used to choose test concentrations; read-out: IC50 (effective concentration against HHV-6 variant B); cited from earlier work
C57BL/6NCrS1c mice = experiment: Tail suspension test of mice after nasal administration of SITH-1-expressing adenovirus; type: in vivo; details: 80 mg/L Fluoxetine solution as drinking water from 2 weeks before SITH-1/Adv; test 7 days after nasal administration
Protocol: 8-week-old C57BL/6NCrS1c mice were raised at a room temperature of 24±1° C. and with lights on for 12 hours and off for 12 hours. After each of the mice was anesthetized with use of isoflurane, SITH-1/Adv or empty/Adv in an amount equivalent to 2.5×10^7 ifu was dropped into the nasal cavity, and was then sucked by the mice along with breathing. Then, the mice were returned to raising cages.
7 days after the nasal administration of SITH-1/Adv or empty/Adv, a tail suspension test was carried out for 10 minutes. A period of immobility time was measured with use of TailSuspScanTopScan (CleverSys, Inc.). The tail suspension test was carried out by suspending each mouse by taping the tail 1 cm from the end. […] In the experiment, 30 mice were used in each group.
Statistical significance (* indicates P<0.05, ** indicates P<0.01, and *** indicates P<0.001) was calculated by use of the Mann-Whitney U-test.
Then, it was studied whether or not an SSRI (selective serotonin reuptake inhibitor), which is an antidepressant, would suppress an increase in immobility time, the increase being caused by the nasal administration of the SITH-1/Adv. 80 mg/L of Fluoxetine solution as drinking water was given to 6-week-old mice, and then the mice were raised for 2 weeks. Then, SITH-1/Adv was nasally administered. 7 days after the nasal administration, a tail suspension test was carried out for 10 minutes. […]

HEK293 cells = experiment: Effect of intracellular protein expression on intracellular calcium concentration (Fluo 4-AM fluorescence); type: cell-based; details: protein temporarily overexpressed in HEK293 cells, 24 hours after transfection; vs control vector (S-C protein: vs SITH-1-expressing cell)
Excerpt: In order to express SITH-1, the S-C protein, and the C-S protein intracellularly, pFLAG-CMV-5b (SIGMA-ALDRICH), which is an expression vector for mammals, was used to construct SITH-1/pFLAG-CMV-5b, SITH-CAML/pFLAG-CMV-5b, and CAML-SITH/pFLAG-CMV-5b. In each of the fusion proteins, the spacer (SEQ ID NO: 6) shown in FIG. 1 was inserted between SITH-1 and CAML. pFLAG-CMV-5b was used as a control. Each vector was transfected into HEK293 cells by use of a CalPhos (trademark) Mammalian Transfection Kit (Takara Bio), such that each protein was temporarily overexpressed intracellularly.
A Calcium Kit II-Fluo 4 (Dojindo) was used to cause cells to take up Fluo 4-AM, 24 hours after transfection. Thereafter, an ArrayScan XTI System (ThermoFisher Scientific) was used to measure fluorescence intensities (λex=485 nm, λem=518) in cells expressing the various proteins (700 to 1300 cells per protein type).
FIG. 26 indicates the effects of SITH-1 expression, S-C protein expression, and C-S protein expression on intracellular calcium concentration. Median, maximum, and minimum values are indicated as a box-and-whisker plot. Statistical significance (′ indicates P<0.01) was determined via a multiple comparison test using Scheffe's method.

heparin
SITH-1 expression in U373 cells (HHV-6 HST strain): suppressed

Nc1nc(O)c2ncn(COC(CO)CO)c2n1 [ganciclovir]
SITH-1 mRNA expression level reduced by ([1]; ganciclovir 3 μM): approximately 20%
SITH-1 mRNA expression level reduced by ([1]; ganciclovir 10 μM): ~40%
SITH-1 mRNA expression level reduced by ([1]; ganciclovir 30 μM): ≥ 80%
IC50 (HHV-6 variant B): ~10 µM

CNCCC(Oc1ccc(C(F)(F)F)cc1)c1ccccc1 (stereo not shown) [Fluoxetine]
immobility time increases in SITH-1/Adv nasal administration mice (tail suspension test) (C57BL/6NCrS1c mice): suppressed

B1: SITH-1: HHV-6 latent infection protein, 159 amino acids, SEQ ID NO: 1 (protein)
chain: MGYEEKVSATGKTRLKILACLIVLILAAAITMLTLEIISNQKRTTTDLEAVTVALKHVSTSLASCTESTTSVHTDSVTSQPTKNKESRKKIEGKSPSWVQALTTASGIILLFCIMMIFITCSWTTEKDTEKSEVQSYASSVETLDSLNEAIIPKTEMNV
modifications: Human herpesvirus 6
intracellular calcium concentration (HEK293 cells): increased
